# Test results: ChEMBL document CHEMBL5321262, “Antiviral Activity of Cannabidiolic Acid and Its Methyl Ester against SARS-CoV-2” (J Nat Prod, 2023)
# The source made the active and inactive calls. The calls are words filed in the database; no cut-off is given here.
# Key:
# [1] = test system: SARS-CoV-2; assay: Antiviral activity against SARS-CoV-2 variant Delta infected in African green monkey Vero E6 cells assessed as reduction in virus-induced cytopathic effect preincubated with virus for 1 hr followed by infection with cells and measured after 72 hrs by microscopic analysis; format: functional, organism-based; conditions: Severe acute respiratory syndrome coronavirus 2, time 73.0 hrs
# [2] = test system: SARS-CoV-2; assay: Antiviral activity against SARS-CoV-2 variant Omicron BA.1 infected in African green monkey Vero E6 cells assessed as reduction in virus-induced cytopathic effect preincubated with virus for 1 hr followed by infection with cells and measured after 72 hrs by microscopic analysis; format: functional, organism-based; conditions: Severe acute respiratory syndrome coronavirus 2, time 73.0 hrs
# [3] = test system: SARS-CoV-2; assay: Antiviral activity against SARS-CoV-2 variant Omicron BA.2 infected in African green monkey Vero E6 cells assessed as reduction in virus-induced cytopathic effect preincubated with virus for 1 hr followed by infection with cells and measured after 72 hrs by microscopic analysis; format: functional, organism-based; conditions: Severe acute respiratory syndrome coronavirus 2, time 73.0 hrs
# [4] = test system: SARS-CoV-2; assay: Antiviral activity against SARS-CoV-2 variant Omicron BA.3 infected African green monkey Vero E6 cells assessed as reduction in virus-induced cytopathic effect preincubated with virus for 1 hr followed by infection with cells and measured after 72 hrs by microscopic analysis; format: functional, organism-based; conditions: Severe acute respiratory syndrome coronavirus 2, time 73.0 hrs
# [5] = test system: SARS-CoV-2; assay: Antiviral activity against SARS-CoV-2 variant Omicron BA.4 infected African green monkey Vero E6 cells assessed as reduction in virus-induced cytopathic effect preincubated with virus for 1 hr followed by infection with cells and measured after 72 hrs by microscopic analysis; format: functional, organism-based; conditions: Severe acute respiratory syndrome coronavirus 2, time 73.0 hrs
# [6] = test system: SARS-CoV-2; assay: Antiviral activity against SARS-CoV-2 variant Omicron BA.5 infected African green monkey Vero E6 cells assessed as reduction in virus-induced cytopathic effect preincubated with virus for 1 hr followed by infection with cells and measured after 72 hrs by microscopic analysis; format: functional, organism-based; conditions: Severe acute respiratory syndrome coronavirus 2, time 73.0 hrs
# [7] = test system: SARS-CoV-2; assay: Antiviral activity against SARS-CoV-2 variant Omicron BA.5 infected in African green monkey Vero E6 cells assessed as reduction in virus titers of progeny virus in supernatant measured after 72 hrs by CPE assay; format: functional, organism-based; conditions: Severe acute respiratory syndrome coronavirus 2, Omicron BA.5, Vero C1008, 72 h
# [8] = test system: SARS-CoV-2; assay: Antiviral activity against SARS-CoV-2 variant Omicron BA.4 infected in African green monkey Vero E6 cells assessed as reduction in virus titers of progeny virus in supernatant measured after 72 hrs by CPE assay; format: functional, organism-based; conditions: Severe acute respiratory syndrome coronavirus 2, Omicron BA.4, Vero C1008, 72 h
# [9] = test system: SARS-CoV-2; assay: Antiviral activity against SARS-CoV-2 variant Omicron BA.3 infected in African green monkey Vero E6 cells assessed as reduction in virus titers of progeny virus in supernatant measured after 72 hrs by CPE assay; format: functional, organism-based; conditions: Severe acute respiratory syndrome coronavirus 2, Omicron BA.3, Vero C1008, 72 h
# [10] = test system: SARS-CoV-2; assay: Antiviral activity against SARS-CoV-2 variant Omicron BA.2 infected in African green monkey Vero E6 cells assessed as reduction in virus titers of progeny virus in supernatant measured after 72 hrs by CPE assay; format: functional, organism-based; conditions: Severe acute respiratory syndrome coronavirus 2, Omicron BA.2, Vero C1008, 72 h
# [11] = test system: SARS-CoV-2; assay: Antiviral activity against SARS-CoV-2 variant Omicron BA.1 infected in African green monkey Vero E6 cells assessed as reduction in virus titers of progeny virus in supernatant measured after 72 hrs by CPE assay; format: functional, organism-based; conditions: Severe acute respiratory syndrome coronavirus 2, Omicron BA.1, Vero C1008, 72 h
# [12] = test system: SARS-CoV-2; assay: Antiviral activity against SARS-CoV-2 variant Delta infected in African green monkey Vero E6 cells assessed as reduction in virus titers of progeny virus in supernatant measured after 72 hrs by CPE assay; format: functional, organism-based; conditions: Severe acute respiratory syndrome coronavirus 2, Delta, Vero C1008, 72 h
# [13] = test system: SARS-CoV-2; assay: Antiviral activity against SARS-CoV-2 variant Delta infected in African green monkey Vero E6 cells assessed as reduction in virus-induced cytopathic effect at 75 uM preincubated with virus for 1 hr followed by infection with cells and measured after 72 hrs by microscopic analysis; format: functional, organism-based; conditions: Severe acute respiratory syndrome coronavirus 2, time 73.0 hrs
# [14] = test system: SARS-CoV-2; assay: Antiviral activity against SARS-CoV-2 variant Omicron BA.1 infected in African green monkey Vero E6 cells assessed as reduction in virus-induced cytopathic effect at 75 uM preincubated with virus for 1 hr followed by infection with cells and measured after 72 hrs by microscopic analysis; format: functional, organism-based; conditions: Severe acute respiratory syndrome coronavirus 2, time 73.0 hrs
# [15] = test system: SARS-CoV-2; assay: Antiviral activity against SARS-CoV-2 variant Omicron BA.2 infected in African green monkey Vero E6 cells assessed as reduction in virus-induced cytopathic effect at 75 uM preincubated with virus for 1 hr followed by infection with cells and measured after 72 hrs by microscopic analysis; format: functional, organism-based; conditions: Severe acute respiratory syndrome coronavirus 2, time 73.0 hrs
# [16] = test system: SARS-CoV-2; assay: Antiviral activity against SARS-CoV-2 variant Omicron BA.3 infected African green monkey Vero E6 cells assessed as reduction in virus-induced cytopathic effect at 75 uM preincubated with virus for 1 hr followed by infection with cells and measured after 72 hrs by microscopic analysis; format: functional, organism-based; conditions: Severe acute respiratory syndrome coronavirus 2, time 73.0 hrs
# [17] = test system: SARS-CoV-2; assay: Antiviral activity against SARS-CoV-2 variant Omicron BA.4 infected African green monkey Vero E6 cells assessed as reduction in virus-induced cytopathic effect at 75 uM preincubated with virus for 1 hr followed by infection with cells and measured after 72 hrs by microscopic analysis; format: functional, organism-based; conditions: Severe acute respiratory syndrome coronavirus 2, time 73.0 hrs
# [18] = test system: SARS-CoV-2; assay: Antiviral activity against SARS-CoV-2 variant Omicron BA.5 infected African green monkey Vero E6 cells assessed as reduction in virus-induced cytopathic effect at 75 uM preincubated with virus for 1 hr followed by infection with cells and measured after 72 hrs by microscopic analysis; format: functional, organism-based; conditions: Severe acute respiratory syndrome coronavirus 2, time 73.0 hrs
# [19] = test system: SARS-CoV-2; assay: Antiviral activity against SARS-CoV-2 variant Delta infected in African green monkey Vero E6 cells assessed as inhibition of virus titers of progeny virus in supernatant at 75 uM measured after 72 hrs by CPE assay relative to control; format: functional; conditions: Severe acute respiratory syndrome coronavirus 2, Delta, Vero C1008
# [20] = test system: SARS-CoV-2; assay: Antiviral activity against SARS-CoV-2 variant Omicron BA.1 infected in African green monkey Vero E6 cells assessed as inhibition of virus titers of progeny virus in supernatant at 75 uM measured after 72 hrs by CPE assay relative to control; format: functional; conditions: Severe acute respiratory syndrome coronavirus 2, Omicron BA.1, Vero C1008
# [21] = test system: SARS-CoV-2; assay: Antiviral activity against SARS-CoV-2 variant Omicron BA.2 infected in African green monkey Vero E6 cells assessed as inhibition of virus titers of progeny virus in supernatant at 75 uM measured after 72 hrs by CPE assay relative to control; format: functional; conditions: Severe acute respiratory syndrome coronavirus 2, Omicron BA.2, Vero C1008
# [22] = test system: SARS-CoV-2; assay: Antiviral activity against SARS-CoV-2 variant Omicron BA.3 infected in African green monkey Vero E6 cells assessed as inhibition of virus titers of progeny virus in supernatant at 75 uM measured after 72 hrs by CPE assay relative to control; format: functional; conditions: Severe acute respiratory syndrome coronavirus 2, Omicron BA.3, Vero C1008
# [23] = test system: SARS-CoV-2; assay: Antiviral activity against SARS-CoV-2 variant Omicron BA.4 infected in African green monkey Vero E6 cells assessed as inhibition of virus titers of progeny virus in supernatant at 75 uM measured after 72 hrs by CPE assay relative to control; format: functional; conditions: Severe acute respiratory syndrome coronavirus 2, Omicron BA.4, Vero C1008
# [24] = test system: SARS-CoV-2; assay: Antiviral activity against SARS-CoV-2 variant Omicron BA.5 infected in African green monkey Vero E6 cells assessed as inhibition of virus titers of progeny virus in supernatant at 75 uM measured after 72 hrs by CPE assay relative to control; format: functional; conditions: Severe acute respiratory syndrome coronavirus 2, Omicron BA.5, Vero C1008
# [25] = test system: SARS-CoV-2; assay: Antiviral activity against SARS-CoV-2 variant Delta infected in African green monkey Vero E6 cells assessed as reduction in viral replication at 75 uM measured at 72 hrs post-infection by qRT-PCR analysis; format: functional, organism-based; conditions: Severe acute respiratory syndrome coronavirus 2
# [26] = test system: SARS-CoV-2; assay: Antiviral activity against SARS-CoV-2 variant Omicron BA.1 infected in African green monkey Vero E6 cells assessed as reduction in viral replication at 75 uM measured at 72 hrs post-infection by qRT-PCR analysis; format: functional, organism-based; conditions: Severe acute respiratory syndrome coronavirus 2
# [27] = test system: SARS-CoV-2; assay: Antiviral activity against SARS-CoV-2 variant Omicron BA.2 infected in African green monkey Vero E6 cells assessed as reduction in viral replication at 75 uM measured at 72 hrs post-infection by qRT-PCR analysis; format: functional, organism-based; conditions: Severe acute respiratory syndrome coronavirus 2
# [28] = test system: SARS-CoV-2; assay: Antiviral activity against SARS-CoV-2 variant Omicron BA.3 infected in African green monkey Vero E6 cells assessed as reduction in viral replication at 75 uM measured at 72 hrs post-infection by qRT-PCR analysis; format: functional, organism-based; conditions: Severe acute respiratory syndrome coronavirus 2
# [29] = test system: SARS-CoV-2; assay: Antiviral activity against SARS-CoV-2 variant Omicron BA.4 infected in African green monkey Vero E6 cells assessed as reduction in viral replication at 75 uM measured at 72 hrs post-infection by qRT-PCR analysis; format: functional, organism-based; conditions: Severe acute respiratory syndrome coronavirus 2
# [30] = test system: SARS-CoV-2; assay: Antiviral activity against SARS-CoV-2 variant Omicron BA.5 infected in African green monkey Vero E6 cells assessed as reduction in viral replication at 75 uM measured at 72 hrs post-infection by qRT-PCR analysis; format: functional, organism-based; conditions: Severe acute respiratory syndrome coronavirus 2
smiles,measurement,setting,value
CCCc1cc(O)c(C/C=C(\C)CCC=C(C)C)c(O)c1,Activity,[1],inactive
same,Activity,[2],inactive
same,Activity,[3],inactive
same,Activity,[4],inactive
same,Activity,[5],inactive
same,Activity,[6],inactive
CCCCCc1cc(O)c2c(c1)OC(C)(CCC=C(C)C)C=C2 (stereo not given) [CANNABICHROMENE],Activity,[1],inactive
same,Activity,[2],inactive
same,Activity,[3],inactive
same,Activity,[4],inactive
same,Activity,[5],inactive
same,Activity,[6],inactive
C=C(C)[C@@H]1CCC(C)=C[C@H]1c1c(O)cc(CCCCC)c(C(=O)O)c1O [CANNABIDIOLIC ACID],IC50,[7],47.5 µM
same,IC50,[8],47.7 µM
same,IC50,[9],31.7 µM
same,IC50,[10],35.1 µM
same,IC50,[11],45.4 µM
same,IC50,[12],30.7 µM
same,Activity,[13],Active
same,Activity,[14],Active
same,Activity,[15],Active
same,Activity,[16],Active
same,Activity,[17],Active
same,Activity,[18],Active
same,inhibition at 75 µM,[19],> 90%
same,inhibition at 75 µM,[20],> 90%
same,inhibition at 75 µM,[21],> 90%
same,inhibition at 75 µM,[22],> 90%
same,inhibition at 75 µM,[23],> 90%
same,inhibition at 75 µM,[24],> 90%
same,Activity,[25],Active
same,Activity,[26],Active
same,Activity,[27],Active
same,Activity,[28],Active
same,Activity,[29],Active
same,Activity,[30],Active
C=C(C)[C@@H]1CCC(C)=C[C@H]1c1c(O)cc(CCCCC)cc1O [CANNABIDIOL],Activity,[1],inactive
same,Activity,[2],inactive
same,Activity,[3],inactive
same,Activity,[4],inactive
same,Activity,[5],inactive
same,Activity,[6],inactive
C=C(C)[C@@H]1CCC(C)=C[C@H]1c1c(O)cc(CCC)cc1O [CANNABIDIVARIN],Activity,[1],inactive
same,Activity,[2],inactive
same,Activity,[3],inactive
same,Activity,[4],inactive
same,Activity,[5],inactive
same,Activity,[6],inactive
CCCCCc1cc(O)c(C/C=C(\C)CCC=C(C)C)c(O)c1C(=O)O [CANNABIGEROLIC ACID],Activity,[1],inactive
same,Activity,[2],inactive
same,Activity,[3],inactive
same,Activity,[4],inactive
same,Activity,[5],inactive
same,Activity,[6],inactive
CCCCCc1cc(O)c(C/C=C(\C)CCC=C(C)C)c(O)c1 [CANNABIGEROL],Activity,[1],inactive
same,Activity,[2],inactive
same,Activity,[3],inactive
same,Activity,[4],inactive
same,Activity,[5],inactive
same,Activity,[6],inactive
